Assay results taken from patent US10857201B2, “NNIF and nNIF-related peptides and related methods” (UNIVERSITY OF UTAH RESEARCH FOUNDATION, priority 2016, dated 2020).
“Also recorded” adds a separate entry of the source.

Experiments:
[1] = tested on: C57BL/6 mice challenged with LPS; test: Mouse model of systemic inflammation induced by LPS (endotoxemia), survival; type: in vivo
Procedure: Animals with no treatments or given LPS alone were studied in parallel (n≥10 mice for each condition). **P<0.01, log-rank (Mantel-Cox) statistical tool used. The survival difference between nNIF-LPS and CRISPP-LPS compared to CRISPP-SCR-LPS trended toward significance (§ P=0.051).
Control mice were i.p. injected with saline alone. Fluid resuscitation and antibiotic treatment were not used in these experiments. Survival was assessed over 50 or 72 hour intervals. All mice were included in the final survival analysis.

PMN phagocytosis = test: Phagocytosis of fluorescently labeled E. coli bioparticles; type: cell-based, human; conditions: 4 hour incubation, peptides 1 nM
Procedure: FIG. 6C is a graph depicting phagocytosis of fluorescently-labeled E. coli bioparticles that were measured by microscopy after a 4 hour incubation. Treatment with cytochalasin B and D served as a control for inhibition of phagocytosis. Student's t test, *P<0.05.
PMNs were isolated from blood of healthy adult donors and resuspended in M-199 at a concentration of 2×10^6 cells/mL. Leukocytes were pre-incubated for 60 minutes under standard conditions with cytochalasin D and B (10 μM), nNIF (1 nM), CRISPP (1 nM), or CRISPP-SCR (1 nM). Following pre-incubation, PMNs were incubated with 6×10^6 E. coli bioparticles (MOLECULAR PROBES®) on a rotator for 4 hours at 37° C. in 5% […] air. The PMNs were then washed and resuspended in the starting volume of M-199 before being spun down onto glass coverslips and fixed with 2% p-FA for 10 minutes and permeabilized with 0.1% Triton-X-100 for 10 minutes. Leukocytes were stained with WGA 555 (INVITROGEN™) and TO-PRO®-3 (MOLECULAR PROBES®), and randomly selected high-power visual field images were captured using confocal microscopy. IMAGEJ™ software (NIH) was used to determine the percentage of PMNs that were positive for fluorescently labeled E. coli bioparticles detected at 488 nm.

previously-formed NETs = test: Post-treatment of previously formed NETs (dismantling); type: cell-based, human; conditions: agent added after LPS stimulation; nNIF, CRISPP 1 nM; DNase 3.78 U/mL
Procedure: FIG. 4A is a series of images depicting neutrophils isolated from venous blood of healthy adults that were incubated in medium alone (Control) or activated with LPS (100 ng/mL). CRISPP (1 nM) was added at 0, 30, or 60 minutes after LPS, and the presence of NETs was assessed by live cell imaging as in FIG. 1A after an additional 1 hour of incubation (20× magnification; scale bar=100 μm). The images are representative of three separate experiments.
For selected experiments, primary PMNs were pre-incubated with autologous plasma, cord blood plasma, nNIF (0.2-70 nM), CRISPP (0.2-70 nM), nNIF-SCR (1 nM), or CRISPP-SCR (1 nM) for one hour prior to stimulation. After pre-incubation and/or stimulation, PMNs were gently washed with PBS and incubated with a mixture of cell permeable (SYTO® Green, MOLECULAR PROBES®) and impermeable (SYTOX® Orange, MOLECULAR PROBES®) DNA fluorescent dyes. Confocal microscopy was accomplished using a FV1000 IX81 confocal microscope and FLUOVIEW™ software (OLYMPUS™). Both 20× and 60× objectives were used. Z-series images were obtained at a step size of 1 μm over a range of 20 μm for each field. FLUOVIEW™ and ADOBE™ PHOTOSHOP™ CS2 software was used for image processing.

recombinant PAD4 = target: T1, recombinant PAD4 (Homo sapiens, UniProt Q9UM07); test: Cell-free PAD4 deimination assay; type: biochemical; conditions: for PAD4 activity: cell-free, synthetic substrate, nNIF 1 nM, Cl-amidine 10 μM; for order of potency of inhibition of PAD4: initial comparison of NRPs
T1 construct: purchased CAYMAN
Procedure: One way ANOVA with Tukey's post hoc testing, ***P<0.001.
nNIF inhibition of PAD4 activity was determined using a PAD4 inhibitor screening assay kit (CAYMAN™). Briefly, nNIF (1 nM) was incubated with recombinant PAD4 and PAD4 enzyme substrate (2 mM) in PAD4 assay reagent for 30 minutes at 37° C. […] The reaction was stopped with PAD4 Stop Solution and detected using an included ammonia detector assay. Ammonia detector fluorescence was measured at 470 nm following excitation at 405 nm on a SPECTRAMAX™ M5 fluorescence plate reader (MOLECULAR DEVICES™).

[2] = tested on: reactive oxygen species generation by PMNs; test: Reactive oxygen species generation (dihydrorhodamine, flow cytometry); type: cell-based, human; conditions: LPS 100 ng/mL, 1 hour
Procedure: FIG. 6B is a graph depicting reactive oxygen species generation that was measured by dihydrorhodamine detection after LPS stimulation (100 ng/mL, 1 hour).
Human PMNs isolated from healthy adult whole blood were resuspended to a concentration of 2×10^6 cells/mL in M-199 media and pre-incubated±CRISPP (1 nM) or CRISPP-SCR (1 nM) peptide for 1 hour at 37° C. in 5% CO2/95% air. The PMNs were then stimulated with LPS (100 ng/mL) for 1 hour, washed, and resuspended with a dihydrorhodamine ([…]; MOLECULAR PROBES®) and catalase (1000 Units/mL; SIGMA-ALDRICH®) mixture and incubated at 37° C. for 10 minutes. After incubation, samples were placed at 4° C. and analyzed for ROS-dependent fluorescence using flow cytometry as performed in the University of Utah core facility (BECTON DICKINSON™, […]™ software).
Without being bound by any specific theory, it was hypothesized that placentally expressed HTRA1, a serine protease, regulates the formation of NET-inhibitory peptides through cleavage of AAT. To test this hypothesis, term and preterm placenta were assessed for HTRA1 expression via western blotting. HTRA1 and AAT plasma expression from term and preterm infants and adults were determined by ELISA. Bioactive (0.5 μg) or placental eluted HTRA1 was incubated with AAT (8 μM) for 18 hours at 37° C. Carboxy-terminus fragments of AAT were detected using western blotting and mass spectrometry. […]

T1 sequence (Q9UM07 whole entry): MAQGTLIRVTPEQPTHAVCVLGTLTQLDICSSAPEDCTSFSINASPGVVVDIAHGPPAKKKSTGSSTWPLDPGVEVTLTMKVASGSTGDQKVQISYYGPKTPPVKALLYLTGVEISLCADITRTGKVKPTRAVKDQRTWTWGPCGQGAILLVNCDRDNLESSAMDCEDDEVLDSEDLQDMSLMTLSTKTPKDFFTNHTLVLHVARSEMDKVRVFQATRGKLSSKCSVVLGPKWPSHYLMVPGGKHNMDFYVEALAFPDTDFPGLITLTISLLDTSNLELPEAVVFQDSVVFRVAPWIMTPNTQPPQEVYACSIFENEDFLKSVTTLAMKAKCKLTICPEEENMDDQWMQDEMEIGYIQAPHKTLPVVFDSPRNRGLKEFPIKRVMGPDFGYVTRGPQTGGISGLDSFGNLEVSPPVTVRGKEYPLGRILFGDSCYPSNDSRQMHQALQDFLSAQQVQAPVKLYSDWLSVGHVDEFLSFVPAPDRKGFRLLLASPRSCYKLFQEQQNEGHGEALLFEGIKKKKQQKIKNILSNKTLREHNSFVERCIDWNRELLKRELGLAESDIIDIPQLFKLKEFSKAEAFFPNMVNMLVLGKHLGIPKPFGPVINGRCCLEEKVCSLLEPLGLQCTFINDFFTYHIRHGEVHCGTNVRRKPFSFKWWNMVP

Substance	survival advantage at 72 hours ([1]; second experiment, compared to LPS alone)	phagocytosis (PMN phagocytosis)	degradation or dismantling of previously-formed NETs (previously-formed NETs)	PAD4 activity (recombinant PAD4)	order of potency of inhibition of PAD4 (recombinant PAD4)	generation of reactive oxygen species (ROS) [2]	animals alive at 50 hours ([1]; i.p. LPS, first experiment, n=6 per group)
KFNKPFVFLMIEQNTKSPLFMGKVVNPTQ (listed as Homo sapiens) [nNIF]	durable	did not inhibit	do not degrade or dismantle	blocked its activity	nNIF ≈CRISPP>A1ATm^358	did not inhibit	
M_IPPEVKFNKPFVFLMIDQNTKVPLFMGK [CRISPP, consensus peptide based on factors present in the blood of patients with cancer]		did not inhibit	do not degrade or dismantle	inhibited	nNIF ≈CRISPP>A1ATm^358	did not inhibit; also recorded: not inhibited	all
